According to ChEMBL document CHEMBL1201862, “PubChem BioAssay data set” (2004):
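All cell lines were grown in 96-well plates and treated with compound for 48 hours. GI50: concentration for 50% inhibition of growth.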 The source made the active and inactive calls. Rule as the data show it: active = GI50 up to about 1.1 µM and inactive = higher.

Key:
Assay in all cases: NCI tumour cell line growth inhibition, 48 h
LOX IMVI = test system: LOX IMVI
PC-3 = test system: PC-3
BT-549 = test system: BT-549
OVCAR-5 = test system: OVCAR-5
U-251 = test system: U-251
SF-539 = test system: SF-539
DU-145 = test system: DU-145
CCRF-CEM = test system: CCRF-CEM
SN12C = test system: SN12C
OVCAR-3 = test system: OVCAR-3
HT-29 = test system: HT-29
NCI-H226 = test system: NCI-H226
SK-OV-3 = test system: SK-OV-3
Malme-3M = test system: Malme-3M
A498 = test system: A498
K562 = test system: K562
HCT-116 = test system: HCT-116
A549 = test system: A549
COLO 205 = test system: COLO 205
HOP-92 = test system: HOP-92
MCF7 = test system: MCF7
MOLT-4 = test system: MOLT-4
IGROV-1 = test system: IGROV-1
NCI-H460 = test system: NCI-H460
SK-MEL-2 = test system: SK-MEL-2
EKVX = test system: EKVX
SF-295 = test system: SF-295
KM12 = test system: KM12
ACHN = test system: ACHN
NCI/ADR-RES = test system: NCI/ADR-RES
RXF 393 = test system: RXF 393
NCI-H522 = test system: NCI-H522
SW-620 = test system: SW-620
SNB-75 = test system: SNB-75
HCT-15 = test system: HCT-15
OVCAR-4 = test system: OVCAR-4
HL-60 = test system: HL-60
T47D = test system: T47D
SK-MEL-28 = test system: SK-MEL-28
Hs-578T = test system: Hs-578T
UO-31 = test system: UO-31
CAKI-1 = test system: CAKI-1
MDA-MB-435 = test system: MDA-MB-435
MDA-N = test system: MDA-N
TK-10 = test system: TK-10
SNB-19 = test system: SNB-19
M14 = test system: M14
UACC-257 = test system: UACC-257
SR = test system: SR
OVCAR-8 = test system: OVCAR-8
786-0 = test system: 786-0
SK-MEL-5 = test system: SK-MEL-5
HOP-62 = test system: HOP-62
RPMI-8226 = test system: RPMI-8226
SF-268 = test system: SF-268
NCI-H23 = test system: NCI-H23
UACC-62 = test system: UACC-62
HCC 2998 = test system: HCC 2998
MDA-MB-231 = test system: MDA-MB-231

O=C1N=C(Nc2ccccc2Cl)N/C1=C\c1ccc(Cl)cc1Cl
GI50 (LOX IMVI): > 100 µM (inactive)
GI50 (PC-3): 33.7 µM (inactive)
GI50 (BT-549): > 100 µM (inactive)
GI50 (OVCAR-5): > 100 µM (inactive)
GI50 (U-251): 33.9 µM (inactive)
GI50 (SF-539): 37.8 µM (inactive)
GI50 (DU-145): 33.3 µM (inactive)
GI50 (CCRF-CEM): 29.5 µM (inactive)
GI50 (SN12C): 25 µM (inactive)
GI50 (OVCAR-3): 66.1 µM (inactive)
GI50 (HT-29): > 100 µM (inactive)
GI50 (NCI-H226): 25.1 µM (inactive)
GI50 (SK-OV-3): > 100 µM (inactive)
GI50 (Malme-3M): 53.6 µM (inactive)
GI50 (A498): 33.1 µM (inactive)
GI50 (K562): 9.46 µM (inactive)
GI50 (HCT-116): 38.4 µM (inactive)
GI50 (A549): 98.9 µM (inactive)
GI50 (COLO 205): 47.8 µM (inactive)
GI50 (HOP-92): 39.9 µM (inactive)
GI50 (MCF7): 31.4 µM (inactive)
GI50 (MOLT-4): 66.8 µM (inactive)
GI50 (IGROV-1): 79.4 µM (inactive)
GI50 (NCI-H460): 49.2 µM (inactive)
GI50 (SK-MEL-2): 18.9 µM (inactive)
GI50 (EKVX): > 100 µM (inactive)
GI50 (SF-295): 60.8 µM (inactive)
GI50 (KM12): 45.6 µM (inactive)
GI50 (ACHN): 62.1 µM (inactive)
GI50 (NCI/ADR-RES): 45.6 µM (inactive)
GI50 (RXF 393): 15.5 µM (inactive)
GI50 (NCI-H522): 11.9 µM (inactive)
GI50 (SW-620): 46.3 µM (inactive)
GI50 (SNB-75): 29.9 µM (inactive)
GI50 (HCT-15): 39.5 µM
GI50 (OVCAR-4): 44.3 µM (inactive)
GI50 (HL-60): 0.122 µM (active)
GI50 (T47D): > 100 µM (inactive)
GI50 (SK-MEL-28): 99.8 µM (inactive)
GI50 (Hs-578T): > 100 µM (inactive)
GI50 (UO-31): > 100 µM (inactive)
GI50 (CAKI-1): > 100 µM (inactive)
GI50 (MDA-MB-435): 5.96 µM (inactive)
GI50 (MDA-N): 8.11 µM (inactive)
GI50 (TK-10): > 100 µM (inactive)
GI50 (SNB-19): > 100 µM (inactive)
GI50 (M14): 72.6 µM (inactive)
GI50 (UACC-257): 75.3 µM (inactive)
GI50 (SR): 5.3 µM (inactive)
GI50 (OVCAR-8): 38.3 µM (inactive)
GI50 (786-0): 68.2 µM (inactive)
GI50 (SK-MEL-5): 71.9 µM (inactive)
GI50 (HOP-62): 62.4 µM (inactive)
GI50 (RPMI-8226): > 100 µM (inactive)
GI50 (SF-268): > 100 µM (inactive)
GI50 (NCI-H23): > 100 µM (inactive)
GI50 (UACC-62): > 100 µM (inactive)
GI50 (HCC 2998): 53.5 µM (inactive)

O=C(Nc1ccc(Cl)c(C(F)(F)F)c1)C(=O)c1c(O)c2ccccc2oc1=O
GI50 (LOX IMVI): > 100 µM (inactive)
GI50 (PC-3): > 100 µM (inactive)
GI50 (BT-549): > 100 µM (inactive)
GI50 (OVCAR-5): > 100 µM (inactive)
GI50 (U-251): > 100 µM (inactive)
GI50 (SF-539): > 100 µM (inactive)
GI50 (CCRF-CEM): > 100 µM (inactive)
GI50 (SN12C): > 100 µM (inactive)
GI50 (OVCAR-3): > 100 µM (inactive)
GI50 (HT-29): > 100 µM (inactive)
GI50 (NCI-H226): > 100 µM (inactive)
GI50 (SK-OV-3): > 100 µM (inactive)
GI50 (Malme-3M): > 100 µM (inactive)
GI50 (A498): > 100 µM (inactive)
GI50 (K562): > 100 µM (inactive)
GI50 (HCT-116): > 100 µM (inactive)
GI50 (A549): > 100 µM (inactive)
GI50 (HOP-92): > 100 µM (inactive)
GI50 (MCF7): > 100 µM (inactive)
GI50 (MOLT-4): > 100 µM (inactive)
GI50 (IGROV-1): > 100 µM (inactive)
GI50 (NCI-H460): > 100 µM (inactive)
GI50 (SK-MEL-2): > 100 µM (inactive)
GI50 (EKVX): > 100 µM (inactive)
GI50 (SF-295): > 100 µM (inactive)
GI50 (KM12): > 100 µM (inactive)
GI50 (ACHN): > 100 µM (inactive)
GI50 (NCI/ADR-RES): > 100 µM (inactive)
GI50 (RXF 393): > 100 µM (inactive)
GI50 (NCI-H522): > 100 µM (inactive)
GI50 (SW-620): > 100 µM (inactive)
GI50 (SNB-75): > 100 µM (inactive)
GI50 (HCT-15): > 100 µM
GI50 (OVCAR-4): > 100 µM (inactive)
GI50 (HL-60): > 10 µM (inactive)
GI50 (T47D): > 100 µM (inactive)
GI50 (SK-MEL-28): > 100 µM (inactive)
GI50 (Hs-578T): > 100 µM (inactive)
GI50 (UO-31): > 100 µM (inactive)
GI50 (MDA-MB-231): > 100 µM (inactive)
GI50 (CAKI-1): > 100 µM (inactive)
GI50 (MDA-MB-435): > 100 µM (inactive)
GI50 (MDA-N): > 100 µM (inactive)
GI50 (TK-10): > 100 µM (inactive)
GI50 (SNB-19): > 100 µM (inactive)
GI50 (M14): > 100 µM (inactive)
GI50 (UACC-257): > 100 µM (inactive)
GI50 (SR): > 100 µM (inactive)
GI50 (OVCAR-8): > 100 µM (inactive)
GI50 (786-0): > 100 µM (inactive)
GI50 (SK-MEL-5): > 100 µM (inactive)
GI50 (HOP-62): > 100 µM (inactive)
GI50 (RPMI-8226): > 100 µM (inactive)
GI50 (SF-268): > 100 µM (inactive)
GI50 (NCI-H23): > 100 µM (inactive)
GI50 (UACC-62): > 100 µM (inactive)
GI50 (HCC 2998): > 100 µM (inactive)

O=c1c(-c2ccccc2F)coc2cc(F)ccc12
GI50 (LOX IMVI): 34.8 µM (inactive)
GI50 (PC-3): > 100 µM (inactive)
GI50 (BT-549): 99.1 µM (inactive)
GI50 (OVCAR-5): > 100 µM (inactive)
GI50 (U-251): 97.7 µM (inactive)
GI50 (SF-539): 91.4 µM (inactive)
GI50 (DU-145): > 100 µM (inactive)
GI50 (CCRF-CEM): > 100 µM (inactive)
GI50 (SN12C): > 100 µM (inactive)
GI50 (OVCAR-3): > 100 µM (inactive)
GI50 (HT-29): > 100 µM (inactive)
GI50 (NCI-H226): > 100 µM (inactive)
GI50 (SK-OV-3): > 100 µM (inactive)
GI50 (A498): > 100 µM (inactive)
GI50 (HCT-116): > 100 µM (inactive)
GI50 (A549): > 100 µM (inactive)
GI50 (COLO 205): > 100 µM (inactive)
GI50 (HOP-92): > 100 µM (inactive)
GI50 (MOLT-4): > 100 µM (inactive)
GI50 (IGROV-1): 88.3 µM (inactive)
GI50 (NCI-H460): > 100 µM (inactive)
GI50 (SK-MEL-2): > 100 µM (inactive)
GI50 (EKVX): > 100 µM (inactive)
GI50 (SF-295): > 100 µM (inactive)
GI50 (KM12): > 100 µM (inactive)
GI50 (ACHN): > 100 µM (inactive)
GI50 (RXF 393): > 100 µM (inactive)
GI50 (NCI-H522): 37.7 µM (inactive)
GI50 (SW-620): > 100 µM (inactive)
GI50 (SNB-75): 24.2 µM (inactive)
GI50 (HCT-15): > 100 µM
GI50 (OVCAR-4): > 100 µM (inactive)
GI50 (HL-60): 70.6 µM (inactive)
GI50 (T47D): > 100 µM (inactive)
GI50 (SK-MEL-28): > 100 µM (inactive)
GI50 (Hs-578T): > 100 µM (inactive)
GI50 (UO-31): > 100 µM (inactive)
GI50 (MDA-MB-231): > 100 µM (inactive)
GI50 (CAKI-1): > 100 µM (inactive)
GI50 (MDA-MB-435): > 100 µM (inactive)
GI50 (MDA-N): > 100 µM (inactive)
GI50 (TK-10): > 100 µM (inactive)
GI50 (SNB-19): > 100 µM (inactive)
GI50 (M14): > 100 µM (inactive)
GI50 (UACC-257): > 100 µM (inactive)
GI50 (OVCAR-8): > 100 µM (inactive)
GI50 (786-0): 79.6 µM (inactive)
GI50 (SK-MEL-5): > 100 µM (inactive)
GI50 (HOP-62): > 100 µM (inactive)
GI50 (SF-268): > 100 µM (inactive)
GI50 (NCI-H23): 63.4 µM (inactive)
GI50 (UACC-62): > 100 µM (inactive)
